Measurements published in patent US5198542A, “DNA encoding a pitvitary adenylate cyclase activating protein and use thereof” (Takeda Chemical Industries, Inc., priority 1989, dated 1993).
Read-outs that look alike come from different tables or passages of the source. Ends that are not written are not given here.

Tests used:
[1] = hypotensive activity in male Wistar rats under nembutal anesthesia; type: in vivo, rat
Experimental: Using male Wistar rats having a body weight of 350 g under nembutal anesthesia, the hypotensive activity was measured.

[2] = system: adenylate cyclase; conditions: rat pituicytes

Row | Substance | hypotensive activity ([1]; dosage 0.3 n mole/kg) | hypotensive activity ([1]; dosage 1.0 n mole/kg) | hypotensive activity ([1]; dosage 3.0 n mole/kg) | cAMP (M ± SEM) ([2]; peptide 10^-7 M) | cAMP (M ± SEM) ([2]; peptide 10^-8 M) | cAMP (M ± SEM) ([2]; peptide 10^-9 M) | cAMP (M ± SEM) ([2]; peptide 10^-10 M) | cAMP (M ± SEM) ([2]; peptide 10^-11 M) | cAMP (M ± SEM) ([2]; peptide 10^-12 M)
1 | PACAP38 NH2: PACAP38 NH2 synthesized on p-methyl BHA resin according to the amino acid sequence of PACAP38 (Example 5) (HSDGIFTDSYSRYRKQMAVKKYLAAVLGKRYKQRVKNK-NH2; UniProt P18509 132-169, looked up) | 3.2 ± 1.9 mm Hg | 17.4 ± 2.4 mm Hg | 29.8 ± 3.6 mm Hg | – | – | – | – | – | –
2 | Syn.27p-NH2: synthesized 27-NH2, the 1st to 27th positions of mature PACAP38, formula (1") | 14.5 ± 3.1 mm Hg | 51.9 ± 9.6 mm Hg | 4.1 mm Hg | 9.20 ± 0.20 p mol/ml | 9.20 ± 0.00 p mol/ml | 7.90 ± 0.30 p mol/ml | 4.00 ± 0.20 p mol/ml | 2.55 ± 0.15 p mol/ml | 2.05 ± 0.15 p mol/ml
